Where two headings read alike, the source gives them in different places.
System: HIV-1 strain 92-HT599
Assay: Anti HIV-1 p24 assay, strain 92-HT599 in MT2 cells
Assay type: cell-based
Details: for IC50: MT2 cells infected with HIV-1 92-HT599, p24, 96 hours
Procedure: MT2 cells were infected with the HIV-1 strain 92-HT599 (10TCID50/30000 cells). The infected cells are plated at the concentration of 30000 cells per well in a 96 well assay micro plate. A test compound was added to the micro plate in a defined format with the final concentration of DMSO (vehicle) being not more than 1%. Incubation was carried out in a CO2 incubator for 96 hours for viral infection. At the end of incubation period an aliquot from each well was taken for p24 estimation. The quantitation of p24 is an index for antiviral activity of the compound. Percent inhibition was calculated with reference to control values (vehicle).
P24 estimation was carried out using an Advance Biosciences kit as per the procedure as detailed by supplier.
[…] was made by dissolving test compound in DMSO. Subsequent dilutions were made with DMSO to make necessary working stocks (100×).

[1] = Human immunodeficiency virus 1, MT2 cells, HIV-1 92-HT599, p24, concentration 0.1 μM, read-out: Percent inhibition
[2] = Human immunodeficiency virus 1, MT2 cells, HIV-1 92-HT599, p24, concentration 1 μM, read-out: Percent inhibition
[3] = Human immunodeficiency virus 1, MT2, read-out: Percent inhibition

Structure (SMILES)	inhibition at 0.1 µM [1] [%]	inhibition at 1 µM [2] [%]	IC50 (Human immunodeficiency virus 1) [nM]	also measured
C=C(C)[C@@H]1CC[C@]2(C(=O)N[C@H]3C[C@@H](C(=O)N4CCCC4)C3(C)C)CC[C@]3(C)[C@H](CC[C@@H]4[C@@]5(C)CC[C@H](O)C(C)(C)[C@@H]5CC[C@]43C)[C@@H]12 [Example 14, (1R,3aS,5aR,5bR,7aR,9S,11aR,11bR,13aR,13bR)-N-((1S,3R)-2,2-dimethyl-3-(pyrrolidine-1-carbonyl)cyclobutyl)-9-hydroxy-5a,5b,8,8,11a-pentamethyl-1-(prop-1-en-2-yl)icosahydro-1H-cyclopenta[a]chrysene-3a-carboxamide]	71	32	–	–
C=C(C)[C@@H]1CC[C@]2(C(=O)N[C@@H]3CC[C@H](CN4CCOCC4)C3)CC[C@]3(C)[C@H](CC[C@@H]4[C@@]5(C)CC[C@H](O)C(C)(C)[C@@H]5CC[C@]43C)[C@@H]12 [Example 23, (1R,3aS,5aR,5bR,7aR,9S,11aR,11bR,13aR,13bR)-9-hydroxy-5a,5b,8,8,11a-pentamethyl-N-((1R,3S)-3-(morpholinomethyl)cyclopentyl)-1-(prop-1-en-2-yl)icosahydro-1H-cyclopenta[a]chrysene-3a-carboxamide]	11	37	–	–
C=C(C)[C@@H]1CCC2(C(=O)N3C4CCC3CC(n3c(C)nnc3C(C)C)C4)CC[C@]3(C)[C@H](CC[C@@H]4[C@@]5(C)CC[C@H](O)C(C)(C)[C@@H]5CC[C@]43C)[C@@H]12 (stereo partly drawn) [Example 25, ((1R,5aR,5bR,7aR,9S,11aR,11bR,13aR,13bR)-9-hydroxy-5a,5b,8,8,11a-pentamethyl-1-(prop-1-en-2-yl)icosahydro-1H-cyclopenta[a]chrysen-3a-yl)(3-(3-isopropyl-5-methyl-4H-1,2,4-triazol-4-yl)-8-azabicyclo[3.2.1]octan-8-yl)methanone]	33	25	–	–
C=C(C)[C@@H]1CC[C@]2(C(=O)N[C@@H]3C=C[C@H](CN4CCOCC4)C3)CC[C@]3(C)[C@H](CC[C@@H]4[C@@]5(C)CC[C@H](O)C(C)(C)[C@@H]5CC[C@]43C)[C@@H]12 [Example 26, (1R,3aS,5aR,5bR,7aR,9S,11aR,11bR,13aR,13bR)-9-hydroxy-5a,5b,8,8,11a-pentamethyl-N-((1S,4R)-4-(morpholinomethyl)cyclopent-2-enyl)-1-(prop-1-en-2-yl)icosahydro-1H-cyclopenta[a]chrysene-3a-carboxamide]	–	–	–	inhibition at 0.1 µM [3]: 52%; inhibition at 1 µM [3]: 53%
C=C(C)[C@@H]1CC[C@]2(C(=O)N[C@@H]3C[C@H](C(=O)N[C@H](C(=O)O)C(C)C)C3(C)C)CC[C@]3(C)[C@H](CC[C@@H]4[C@@]5(C)CC[C@H](O)C(C)(C)[C@@H]5CC[C@]43C)[C@@H]12 [Example 40, (S)-2-((1S,3R)-3-((1R,3aS,5aR,5bR,7aR,9S,11aR,11bR,13aR,13bR)-9-hydroxy-5a,5b,8,8,11a-pentamethyl-1-(prop-1-en-2-yl)icosahydro-1H-cyclopenta[a]chrysene-3a-carboxamido)-2,2-dimethylcyclobutanecarboxamido)-3-methylbutanoic acid]	13	42	–	–
C=C(C)[C@@H]1CC[C@]2(C(=O)N[C@@H]3C[C@H](C(=O)N4CCCC4)C3(C)C)CC[C@]3(C)[C@H](CC[C@@H]4[C@@]5(C)CC[C@H](O)C(C)(C)[C@@H]5CC[C@]43C)[C@@H]12 [Example 44, (1R,3aS,5aR,5bR,7aR,9S,11aR,11bR,13aR,13bR)-N-((1R,3S)-2,2-dimethyl-3-(pyrrolidine-1-carbonyl)cyclobutyl)-9-hydroxy-5a,5b,8,8,11a-pentamethyl-1-(prop-1-en-2-yl)icosahydro-1H-cyclopenta[a]chrysene-3a-carboxamide]	15	43	–	–
C=C(C)[C@@H]1CC[C@]2(C(=O)N[C@@H]3CC[C@H](CN4CCCC(C)C4)C3)CC[C@]3(C)[C@H](CC[C@@H]4[C@@]5(C)CC[C@H](OC(=O)CC(C)(C)C(=O)O)C(C)(C)[C@@H]5CC[C@]43C)[C@@H]12 (stereo partly drawn) [Example 51, 2,2-dimethyl-4-oxo-4-((1R,3aS,5aR,5bR,7aR,9S,11aR,11bR,13aR,13bR)-5a,5b,8,8,11a-pentamethyl-3a-((1R,3S)-3-((3-methylpiperidin-1-yl)methyl)cyclopentylcarbamoyl)-1-(prop-1-en-2-yl)icosahydro-1H-cyclopenta[a]chrysen-9-yloxy)butanoic acid]	–	–	1	–
C=C(C)[C@@H]1CC[C@]2(C(=O)N[C@@H]3C[C@H](C(=O)N4CCCCC4)C3(C)C)CC[C@]3(C)[C@H](CC[C@@H]4[C@@]5(C)CC[C@H](OC(=O)[C@@H]6C[C@H](C(=O)O)C6(C)C)C(C)(C)[C@@H]5CC[C@]43C)[C@@H]12 [Example 59, (1S,3R)-3-(((1R,3aS,5aR,5bR,7aR,9S,11aR,11bR,13aR,13bR)-3a-((1R,3S)-2,2-dimethyl-3-(piperidine-1-carbonyl)cyclobutylcarbamoyl)-5a,5b,8,8,11a-pentamethyl-1-(prop-1-en-2-yl)icosahydro-1H-cyclopenta[a]chrysen-9-yloxy)carbonyl)-2,2-dimethylcyclobutanecarboxylic acid]	–	–	6	–
C=C(C)[C@@H]1CC[C@]2(C(=O)N[C@H]3C[C@@H](C(=O)N4CCOCC4)C3(C)C)CC[C@]3(C)[C@H](CC[C@@H]4[C@@]5(C)CC[C@H](OC(=O)[C@@H]6C[C@H](C(=O)O)C6(C)C)C(C)(C)[C@@H]5CC[C@]43C)[C@@H]12 [Example 61, (1S,3R)-3-(((1R,3aS,5aR,5bR,7aR,9S,11aR,11bR,13aR,13bR)-3a-((1S,3R)-2,2-dimethyl-3-(morpholine-4-carbonyl)cyclobutylcarbamoyl)-5a,5b,8,8,11a-pentamethyl-1-(prop-1-en-2-yl)icosahydro-1H-cyclopenta[a]chrysen-9-yloxy)carbonyl)-2,2-dimethylcyclobutanecarboxylic acid]	–	–	7	–
C=C(C)[C@@H]1CC[C@]2(C(=O)NC3CCC(CN4CCCCC4)C3)CC[C@]3(C)[C@H](CC[C@@H]4[C@@]5(C)CC[C@H](OC(=O)CCC(=O)O)C(C)(C)[C@@H]5CC[C@]43C)[C@@H]12 (stereo partly drawn) [Example 96, 4-oxo-4-((1R,3aS,5aR,5bR,7aR,9S,11aR,11bR,13aR,13bR)-5a,5b,8,8,11a-pentamethyl-3a-(3-(piperidin-1-ylmethyl)cyclopentylcarbamoyl)-1-(prop-1-en-2-yl)icosahydro-1H-cyclopenta[a]chrysen-9-yloxy)butanoic acid]	–	–	0.1	–
C=C(C)[C@@H]1CC[C@]2(C(=O)NC3CC(C(=O)NCCC(=O)N4CCOCC4)C3(C)C)CC[C@]3(C)[C@H](CC[C@@H]4[C@@]5(C)CC[C@H](O)C(C)(C)[C@@H]5CC[C@]43C)[C@@H]12 (stereo partly drawn) [Example 97, (1R,3aS,5aR,5bR,7aR,9S,11aR,11bR,13aR,13bR)-N-(2,2-dimethyl-3-(3-morpholino-3-oxopropylcarbamoyl)cyclobutyl)-9-hydroxy-5a,5b,8,8,11a-pentamethyl-1-(prop-1-en-2-yl)icosahydro-1H-cyclopenta[a]chrysene-3a-carboxamide]	37	67	–	–
C=C(C)[C@@H]1CC[C@]2(C(=O)NC3CC(C(=O)NCCC(=O)N4CCCC4)C3(C)C)CC[C@]3(C)[C@H](CC[C@@H]4[C@@]5(C)CC[C@H](O)C(C)(C)[C@@H]5CC[C@]43C)[C@@H]12 (stereo partly drawn) [Example 98, (1R,3aS,5aR,5bR,7aR,9S,11aR,11bR,13aR,13bR)-N-(2,2-dimethyl-3-(3-oxo-3-(pyrrolidin-1-yl)propylcarbamoyl)cyclobutyl)-9-hydroxy-5a,5b,8,8,11a-pentamethyl-1-(prop-1-en-2-yl)icosahydro-1H-cyclopenta[a]chrysene-3a-carboxamide]	1	50	–	–
C=C(C)[C@@H]1CC[C@]2(C(=O)N[C@@H]3CC[C@H](CN4CCC(Cc5ccccc5)CC4)C3)CC[C@]3(C)[C@H](CC[C@@H]4[C@@]5(C)CC[C@H](OC(=O)CC(C)(C)C(=O)O)C(C)(C)[C@@H]5CC[C@]43C)[C@@H]12 [Example 99, 4-((1R,3aS,5aR,5bR,7aR,9S,11aR,11bR,13aR,13bR)-3a-((1R,3S)-3-((4-benzylpiperidin-1-yl)methyl)cyclopentylcarbamoyl)-5a,5b,8,8,11a-pentamethyl-1-(prop-1-en-2-yl)icosahydro-1H-cyclopenta[a]chrysen-9-yloxy)-2,2-dimethyl-4-oxobutanoic acid]	89	97	–	–
